Active and inactive are the calls of the source. No rule for the calls is given here.
Tested on: CCRIS mutagenicity, Ames/micronucleus/aberration tests
Experiment: CCRIS mutagenicity studies
[1] = Test System: AMES SALMONELLA TYPHIMURIUM, Strain/Indicator: TA98, Metabolic Activation: NONE, Method: STANDARD PLATE
[2] = Test System: AMES SALMONELLA TYPHIMURIUM, Strain/Indicator: TA98, Metabolic Activation: RAT, LIVER, S-9, AROCLOR 1254, Method: STANDARD PLATE
[3] = Test System: AMES SALMONELLA TYPHIMURIUM, Strain/Indicator: TA98, Metabolic Activation: HAMSTER, LIVER, S-9, AROCLOR 1254 (10%), Method: PREINCUBATION
[4] = Test System: AMES SALMONELLA TYPHIMURIUM, Strain/Indicator: TA98, Metabolic Activation: NONE, Method: PREINCUBATION
[5] = Test System: AMES SALMONELLA TYPHIMURIUM, Strain/Indicator: TA98, Metabolic Activation: RAT, LIVER, S-9, AROCLOR 1254 (10%), Method: PREINCUBATION
[6] = Test System: AMES SALMONELLA TYPHIMURIUM, Strain/Indicator: TA100, Metabolic Activation: HAMSTER, LIVER, S-9, AROCLOR 1254 (10%), Method: PREINCUBATION
[7] = Test System: AMES SALMONELLA TYPHIMURIUM, Strain/Indicator: TA100, Metabolic Activation: NONE, Method: PREINCUBATION
[8] = Test System: AMES SALMONELLA TYPHIMURIUM, Strain/Indicator: TA100, Metabolic Activation: RAT, LIVER, S-9, AROCLOR 1254 (10%), Method: PREINCUBATION
[9] = Test System: AMES SALMONELLA TYPHIMURIUM, Strain/Indicator: TA1535, Metabolic Activation: HAMSTER, LIVER, S-9, AROCLOR 1254 (10%), Method: PREINCUBATION
[10] = Test System: AMES SALMONELLA TYPHIMURIUM, Strain/Indicator: TA1535, Metabolic Activation: NONE, Method: PREINCUBATION
[11] = Test System: AMES SALMONELLA TYPHIMURIUM, Strain/Indicator: TA1535, Metabolic Activation: RAT, LIVER, S-9, AROCLOR 1254 (10%), Method: PREINCUBATION
[12] = Test System: AMES SALMONELLA TYPHIMURIUM, Strain/Indicator: TA1537, Metabolic Activation: HAMSTER, LIVER, S-9, AROCLOR 1254 (10%), Method: PREINCUBATION
[13] = Test System: AMES SALMONELLA TYPHIMURIUM, Strain/Indicator: TA1537, Metabolic Activation: NONE, Method: PREINCUBATION
[14] = Test System: AMES SALMONELLA TYPHIMURIUM, Strain/Indicator: TA1537, Metabolic Activation: RAT, LIVER, S-9, AROCLOR 1254 (10%), Method: PREINCUBATION

## CC1=C(/C=C/C(C)=C/C=C/C(C)=C/C=C/C=C(C)/C=C/C=C(\C)C=O)C(C)(C)CCC1
End Point: In vitro chromosomal aberrations, Test System: Primary rat (Fischer, female) hepatocytes, Metabolic Activation: None
  mutagenic call: active; positive
End Point: In vitro micronucleus, Test System: Primary rat (Fischer, female) hepatocytes, Metabolic Activation: None
  mutagenic call: active; positive
[1]
  mutagenic call: inactive; negative
[2]
  mutagenic call: inactive; negative
Test System: AMES SALMONELLA TYPHIMURIUM, Strain/Indicator: TA100, Metabolic Activation: NONE, Method: STANDARD PLATE
  mutagenic call: inactive; negative
Test System: AMES SALMONELLA TYPHIMURIUM, Strain/Indicator: TA100, Metabolic Activation: RAT, LIVER, S-9, AROCLOR 1254, Method: STANDARD PLATE
  mutagenic call: inactive; negative

## O=C1c2c(Br)c(Br)c(Br)c(Br)c2C(=O)N1CCN1C(=O)c2c(Br)c(Br)c(Br)c(Br)c2C1=O
[3]
  mutagenic call: inactive; negative
[4]
  mutagenic call: inactive; negative
[5]
  mutagenic call: inactive; negative
[6]
  mutagenic call: inactive; negative
[7]
  mutagenic call: inactive; negative
[8]
  mutagenic call: inactive; negative
[9]
  mutagenic call: inactive; negative
[10]
  mutagenic call: inactive; negative
[11]
  mutagenic call: inactive; negative
[12]
  mutagenic call: inactive; negative
[13]
  mutagenic call: inactive; negative
[14]
  mutagenic call: inactive; negative

## COc1cccc2c1C(=O)c1c(O)c3c(c(O)c1C2=O)CC(O)(C(C)=O)CC3OC1CC(N2CCOCC2C#N)C(O)C(C)O1 (stereo not drawn)
Test System: AMES SALMONELLA TYPHIMURIUM, Strain/Indicator: TA98, Metabolic Activation: NONE
  mutagenic call: inactive; negative
Test System: AMES SALMONELLA TYPHIMURIUM, Strain/Indicator: TA98, Metabolic Activation: RAT, LIVER, S-9, AROCLOR 1254
  mutagenic call: active; positive
Test System: CHINESE HAMSTER V-79, Strain/Indicator: V-79/8-AZAGUANINE, Metabolic Activation: NONE
  mutagenic call: active; positive
Test System: CHINESE HAMSTER V-79, Strain/Indicator: V-79/8-AZAGUANINE, Metabolic Activation: RAT, HEPATOCYTES
  mutagenic call: inactive; negative
Test System: UDS RAT HEPATOCYTES, Strain/Indicator: THY INCORP, Metabolic Activation: NONE, Method: AUTOMATIC COLONY COUNTER
  mutagenic call: active; positive

## CC1CNc2cc(O)c3ccc4ccccc4c3c21 (stereo not drawn)
[2]
  mutagenic call: active; positive
Test System: AMES SALMONELLA TYPHIMURIUM, Strain/Indicator: TA98, Metabolic Activation: RAT, LIVER, S-9, AROCLOR, Method: STANDARD PLATE
  mutagenic call: active; positive

## O=[N+]([O-])c1ccc2[nH]c3c([N+](=O)[O-])cccc3c2c1
Test System: AMES SALMONELLA TYPHIMURIUM, Strain/Indicator: TA98(NR), Metabolic Activation: NONE, Method: STANDARD PLATE
  mutagenic call: active; positive
Test System: AMES SALMONELLA TYPHIMURIUM, Strain/Indicator: TA98(NR), Metabolic Activation: RAT, LIVER, S-9, AROCLOR 1254, Method: STANDARD PLATE
  mutagenic call: active; positive
[1]
  mutagenic call: active; positive
[2]
  mutagenic call: active; positive

## Nc1cc2ccccc2cc1N
Test System: AMES SALMONELLA TYPHIMURIUM, Strain/Indicator: TA98, Metabolic Activation: RAT LIVER CYTOSOL, AROCLOR 1254, Method: STANDARD PLATE
  mutagenic call: active; positive
Test System: AMES SALMONELLA TYPHIMURIUM, Strain/Indicator: TA98, Metabolic Activation: RAT LIVER MICROSOMES, AROCLOR 1254, Method: STANDARD PLATE
  mutagenic call: active; positive

## CCCCCN
[3]
  mutagenic call: inactive; negative
[4]
  mutagenic call: inactive; negative
[5]
  mutagenic call: inactive; negative
[6]
  mutagenic call: inactive; negative
[7]
  mutagenic call: inactive; negative
[8]
  mutagenic call: inactive; negative
[9]
  mutagenic call: inactive; negative
[10]
  mutagenic call: inactive; negative
[11]
  mutagenic call: inactive; negative
[12]
  mutagenic call: inactive; negative
[13]
  mutagenic call: inactive; negative
[14]
  mutagenic call: inactive; negative
